Assay results from patent US20220281841A1, “ETHYNYLHETEROCYCLES AS RHO-ASSOCIATED COILED-COIL KINASE (ROCK) INHIBITORS” (Angion Biomedica Corp., priority 2019, published 2022).

Key:
ROCK2 = molecular target: T1, ROCK2 (Homo sapiens, UniProt O75116); experiment: ROCK2 kinase binding affinity, DiscoverX KINOMEscan KdELECT; conditions: for ROCK 2 Selectivity: ROCK2 over ROCK1, from Kd values, N/C = not calculated; for Kd: equilibrium dissociation constant, 11-point 3-fold dilution series, read-out: Kd (μM) ROCK2
T1 construct: purchased DiscoverX (KINOMEscan KdELECT service); host or cells: E. coli BL21-derived (T7 phage) or HEK-293
Protocol: (§1) 1. ROCK1 and ROCK2 kinase assays: The ROCK1 and ROCK2 kinase binding affinities of compounds in this invention were determined by DiscoverX's KINOMEscan™ KdELECT technology (https://www.discoverx.com/kinomescan-elect-kinase-screening-and-profiling-services): Kinase-tagged T7 phage strains were prepared in an E. coli host derived from the BL21 strain. E. coli were grown to log-phase and infected with T7 phage and incubated with shaking at 32° C. until lysis. The lysates were centrifuged and filtered to remove cell debris. The remaining kinases were produced in HEK-293 cells and subsequently tagged with DNA for qPCR detection. Streptavidin-coated magnetic beads were treated with biotinylated small molecule ligands for 30 minutes at room temperature to generate affinity resins for kinase assays. The liganded beads were blocked with excess biotin and washed with blocking buffer (SeaBlock (Pierce), 1% BSA, 0.05% Tween 20, 1 mM DTT) to remove unbound ligand and to reduce nonspecific binding. […] Test compounds were prepared as 111X stocks in 100% DMSO. Kds were determined using an 11-point 3-fold compound dilution series with three DMSO control points. […] The compounds were then diluted directly into the assays such that the final concentration of DMSO was 0.9%. All reactions performed in polypropylene 384-well plate. Each was a final volume of 0.02 ml. […] The kinase concentration in the eluates was measured by qPCR.

ROCK1 = molecular target: T2, ROCK1 (Homo sapiens, UniProt Q13464); experiment: ROCK1 kinase binding affinity, DiscoverX KINOMEscan KdELECT; conditions: equilibrium dissociation constant, 11-point 3-fold dilution series
T2 construct: purchased DiscoverX (KINOMEscan KdELECT service); host or cells: E. coli BL21-derived (T7 phage) or HEK-293
Protocol: as §1

T2 sequence (Q13464 whole entry): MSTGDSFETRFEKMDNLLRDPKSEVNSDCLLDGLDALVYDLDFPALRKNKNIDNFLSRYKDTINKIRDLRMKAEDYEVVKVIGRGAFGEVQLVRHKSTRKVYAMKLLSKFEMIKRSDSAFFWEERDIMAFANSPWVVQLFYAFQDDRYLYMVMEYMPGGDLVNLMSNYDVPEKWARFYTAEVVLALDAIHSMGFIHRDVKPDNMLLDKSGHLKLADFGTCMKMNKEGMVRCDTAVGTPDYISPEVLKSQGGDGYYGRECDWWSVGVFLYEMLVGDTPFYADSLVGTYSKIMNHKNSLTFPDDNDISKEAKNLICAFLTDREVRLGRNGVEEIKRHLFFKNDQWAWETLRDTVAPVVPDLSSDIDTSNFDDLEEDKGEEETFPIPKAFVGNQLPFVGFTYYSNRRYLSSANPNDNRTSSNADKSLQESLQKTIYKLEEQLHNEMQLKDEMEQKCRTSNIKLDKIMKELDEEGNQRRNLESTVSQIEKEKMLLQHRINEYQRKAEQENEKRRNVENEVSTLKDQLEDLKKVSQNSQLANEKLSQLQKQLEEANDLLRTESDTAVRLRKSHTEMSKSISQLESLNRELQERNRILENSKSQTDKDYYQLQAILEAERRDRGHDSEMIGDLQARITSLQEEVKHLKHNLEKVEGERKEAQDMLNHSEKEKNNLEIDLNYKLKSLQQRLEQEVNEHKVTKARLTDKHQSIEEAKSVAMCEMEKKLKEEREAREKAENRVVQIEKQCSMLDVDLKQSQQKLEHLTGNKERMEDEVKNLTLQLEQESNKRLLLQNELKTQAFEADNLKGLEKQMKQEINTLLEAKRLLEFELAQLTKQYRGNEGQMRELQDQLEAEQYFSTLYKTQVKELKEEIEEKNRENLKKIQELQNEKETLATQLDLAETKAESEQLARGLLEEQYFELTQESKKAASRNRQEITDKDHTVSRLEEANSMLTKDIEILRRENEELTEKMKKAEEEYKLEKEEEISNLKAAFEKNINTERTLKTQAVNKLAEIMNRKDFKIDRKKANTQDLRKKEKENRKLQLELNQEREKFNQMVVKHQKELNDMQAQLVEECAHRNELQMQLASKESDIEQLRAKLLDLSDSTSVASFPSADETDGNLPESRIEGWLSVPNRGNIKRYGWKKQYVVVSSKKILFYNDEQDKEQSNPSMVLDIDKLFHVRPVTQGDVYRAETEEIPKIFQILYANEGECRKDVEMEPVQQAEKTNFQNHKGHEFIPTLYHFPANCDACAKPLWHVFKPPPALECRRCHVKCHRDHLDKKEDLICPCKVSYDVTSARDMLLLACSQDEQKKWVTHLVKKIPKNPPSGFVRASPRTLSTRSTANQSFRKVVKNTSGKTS
T1 sequence (O75116 whole entry): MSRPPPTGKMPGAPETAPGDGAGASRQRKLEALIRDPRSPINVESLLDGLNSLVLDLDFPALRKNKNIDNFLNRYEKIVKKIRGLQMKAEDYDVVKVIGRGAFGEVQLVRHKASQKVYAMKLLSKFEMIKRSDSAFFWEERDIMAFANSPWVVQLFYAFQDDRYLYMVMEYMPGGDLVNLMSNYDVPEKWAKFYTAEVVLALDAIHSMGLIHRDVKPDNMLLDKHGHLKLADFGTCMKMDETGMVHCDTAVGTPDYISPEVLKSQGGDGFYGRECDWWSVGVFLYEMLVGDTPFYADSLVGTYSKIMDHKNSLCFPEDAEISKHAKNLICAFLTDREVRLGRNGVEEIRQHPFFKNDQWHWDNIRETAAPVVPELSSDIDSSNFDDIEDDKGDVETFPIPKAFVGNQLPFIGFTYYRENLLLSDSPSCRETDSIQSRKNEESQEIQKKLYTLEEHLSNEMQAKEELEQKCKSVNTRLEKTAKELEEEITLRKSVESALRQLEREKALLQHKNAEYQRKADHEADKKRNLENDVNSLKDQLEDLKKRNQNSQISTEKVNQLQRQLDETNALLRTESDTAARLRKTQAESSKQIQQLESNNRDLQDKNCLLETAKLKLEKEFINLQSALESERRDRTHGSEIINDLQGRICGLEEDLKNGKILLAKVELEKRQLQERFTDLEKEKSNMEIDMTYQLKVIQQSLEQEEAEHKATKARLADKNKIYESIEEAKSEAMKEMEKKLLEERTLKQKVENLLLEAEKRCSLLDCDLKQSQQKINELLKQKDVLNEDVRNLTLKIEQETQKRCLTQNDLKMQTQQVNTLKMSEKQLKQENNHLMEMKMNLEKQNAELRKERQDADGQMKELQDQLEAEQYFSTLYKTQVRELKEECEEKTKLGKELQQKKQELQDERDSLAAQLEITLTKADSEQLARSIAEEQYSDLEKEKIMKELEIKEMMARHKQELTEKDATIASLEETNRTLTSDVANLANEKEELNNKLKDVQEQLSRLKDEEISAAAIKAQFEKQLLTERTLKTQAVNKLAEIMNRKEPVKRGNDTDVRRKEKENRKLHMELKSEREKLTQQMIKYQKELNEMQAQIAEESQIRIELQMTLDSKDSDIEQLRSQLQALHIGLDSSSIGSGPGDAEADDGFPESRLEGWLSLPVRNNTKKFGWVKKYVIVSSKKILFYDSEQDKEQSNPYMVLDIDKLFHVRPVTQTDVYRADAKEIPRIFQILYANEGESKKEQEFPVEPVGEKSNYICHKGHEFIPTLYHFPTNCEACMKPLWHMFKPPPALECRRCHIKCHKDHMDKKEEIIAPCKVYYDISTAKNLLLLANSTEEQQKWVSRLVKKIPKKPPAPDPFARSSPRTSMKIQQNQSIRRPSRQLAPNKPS

Structure (SMILES) | ROCK 2 Selectivity (ROCK2) | Kd (ROCK2) [µM] | Kd (ROCK1) [µM]
Fc1ccc2c(c1)CN(c1nccc(-c3nccc(C#Cc4cnc5[nH]ncc5c4)n3)n1)C2 [Ex. 32, 5-((2′-(5-Fluoroisoindolin-2-yl)-[2,4′-bipyrimidin]-4-yl)ethynyl)-1H-pyrazolo[3,4-b]pyridine] | >103 | 0.29 | > 30
Fc1ccc2c(c1)CN(c1nccc(-c3nccc(C#Cc4cc(F)c5[nH]ncc5c4)n3)n1)C2 [Ex. 14, 7-Fluoro-5-((2′-(5-fluoroisoindolin-2-yl)-[2,4′-bipyrimidin]-4-yl)ethynyl)-1H-indazole] | >1071 | 0.028 | > 30
COCCOc1ccc2c(c1)CN(c1nccc(-c3nccc(C#Cc4ccc5[nH]ncc5c4)n3)n1)C2 [Ex. 47, 5-((2′-(5-(2-Methoxyethoxy)isoindolin-2-yl)-[2,4′-bipyrimidin]-4-yl)ethynyl)-1H-indazole] | 51.6 | 0.0031 | 0.16
COc1ccc2c(c1)CN(c1nccc(-c3nccc(C#Cc4cn[nH]c4)n3)n1)C2 [Ex. 2, 2-(4-((1H-Pyrazol-4-yl)ethynyl)-[2,4′-bipyrimidin]-2′-yl)-5-methoxyisoindoline] |  | > 30 | > 30
Fc1cc(C#Cc2ccc3[nH]ncc3c2)cc(-c2ccnc(N3Cc4ccc(Cl)cc4C3)n2)c1 [Ex. 26, 5-((3-(2-(5-Chloroisoindolin-2-yl)pyrimidin-4-yl)-5-fluorophenyl)ethynyl)-1H-indazole] | >6.67 | 4.5 | > 30
CN(C)CCOc1ccc2c(c1)CN(c1nccc(-c3cc(F)cc(C#Cc4ccc5[nH]ncc5c4)c3)n1)C2 [Ex. 28, 2-((2-(4-(3-((1H-Indazol-5-yl)ethynyl)-5-fluorophenyl)pyrimidin-2-yl)isoindolin-5-yl)oxy)-N,N-dimethylethanamine] |  | > 30 | > 30
Fc1ccc2c(c1)CN(c1nccc(-c3nccc(C#Cc4ccc5[nH]ncc5c4)n3)n1)C2 [Ex. 13, 5-((2′-(5-Fluoroisoindolin-2-yl)-[2,4′-bipyrimidin]-4-yl)ethynyl)-1H-indazole] | 1164 | 0.0079 | 9.2
C(#Cc1ccnc(-c2ccnc(N3CCC(c4ccccc4)CC3)n2)n1)c1ccc2[nH]ncc2c1 [Ex. 55, 5-((2′-(4-Phenylpiperidin-1-yl)-[2,4′-bipyrimidin]-4-yl)ethynyl)-1H-indazole] | 28.9 | 0.9 | 26
COc1cc2c(cn1)CN(c1nccc(-c3nccc(C#Cc4ccc5[nH]ncc5c4)n3)n1)C2 [Ex. 15, 5-((2′-(6-Methoxy-1,3-dihydro-2H-pyrrolo[3,4-c]pyridin-2-yl)-[2,4′-bipyrimidin]-4-yl)ethynyl)-1H-indazole] | >35 | 0.17 | > 6
Clc1ccc(N2CCN(c3nccc(-c4nccc(C#Cc5ccc6[nH]ncc6c5)n4)n3)CC2)cc1 [Ex. 61, 5-((2′-(4-(4-Chlorophenyl)piperazin-1-yl)-[2,4′-bipyrimidin]-4-yl)ethynyl)-1H-indazole] | 44.9 | 0.49 | 22
C(#Cc1ccnc(-c2ccnc(N3CCN(c4ncc[nH]4)CC3)n2)n1)c1ccc2[nH]ncc2c1 [Ex. 58, 5-((2′-(4-(1H-Imidazol-2-yl)piperazin-1-yl)-[2,4′-bipyrimidin]-4-yl)ethynyl)-1H-indazole] | 5 | 0.32 | 1.6
C(#Cc1ccnc(-c2ccnc(N3Cc4ncsc4C3)n2)n1)c1ccc2[nH]ncc2c1 [Ex. 65, 5-(4-((1H-Indazol-5-yl)ethynyl)-[2,4′-bipyrimidin]-2′-yl)-5,6-dihydro-4H-pyrrolo[3,4-d]thiazole] | 142 | 0.024 | 3.4
CN1CCN(c2ccc3c(c2)CN(c2nccc(-c4cc(F)cc(C#Cc5ccc6[nH]ncc6c5)c4)n2)C3)CC1 [Ex. 29, 5-((3-Fluoro-5-(2-(5-(4-methylpiperazin-1-yl)isoindolin-2-yl)pyrimidin-4-yl)phenyl)ethynyl)-1H-indazole] |  | > 30 | > 30
COc1cccc(C2CCN(c3nccc(-c4nccc(C#Cc5ccc6[nH]ncc6c5)n4)n3)C2)c1 (centres unmarked) [Ex. 70, 5-((2′-(3-(3-Methoxyphenyl)pyrrolidin-1-yl)-[2,4′-bipyrimidin]-4-yl)ethynyl)-1H-indazole] | 27.7 | 0.22 | 6.1
C(#Cc1ccnc(-c2ccnc(N3Cc4c[nH]nc4C3)n2)n1)c1ccc2[nH]ncc2c1 [Ex. 35, 5-((2′-(2,6-Dihydropyrrolo[3,4-c]pyrazol-5(4H)-yl)-[2,4′-bipyrimidin]-4-yl)ethynyl)-1H-indazole] | >417 | 0.072 | > 30
CC1CN(c2ccc3c(c2)CN(c2nccc(-c4nccc(C#Cc5ccc6[nH]ncc6c5)n4)n2)C3)CCO1 (centres unmarked) [Ex. 41, 4-(2-(4-((1H-Indazol-5-yl)ethynyl)-[2,4′-bipyrimidin]-2′-yl)isoindolin-5-yl)-2-methylmorpholine] | 45.8 | 0.024 | 1.1
C(#Cc1ccnc(-c2ccnc(N3CCC(c4ccccc4)C3)n2)n1)c1ccc2[nH]ncc2c1 (centres unmarked) [Ex. 69, 5-((2′-(3-Phenylpyrrolidin-1-yl)-[2,4′-bipyrimidin]-4-yl)ethynyl)-1H-indazole] | 36.2 | 0.26 | 9.4
FC(F)(F)c1nnc2n1CCN(c1nccc(-c3nccc(C#Cc4ccc5[nH]ncc5c4)n3)n1)C2 [Ex. 60, 7-(4-((1H-Indazol-5-yl)ethynyl)-[2,4′-bipyrimidin]-2′-yl)-3-(trifluoromethyl)-5,6,7,8-tetrahydro-[1,2,4]triazolo[4,3-a]pyrazine] | 47.1 | 0.21 | 9.9
COc1ccc2c(c1)CN(c1nccc(-c3nccc(C#Cc4cnc5[nH]ncc5c4)n3)n1)C2 [Ex. 33, 5-((2′-(5-Methoxyisoindolin-2-yl)-[2,4′-bipyrimidin]-4-yl)ethynyl)-1H-pyrazolo[3,4-b]pyridine] | >44.1 | 0.68 | > 30
CN(C)C(=O)COc1ccc2c(c1)CN(c1nccc(-c3nccc(C#Cc4ccc5[nH]ncc5c4)n3)n1)C2 [Ex. 43, 2-((2-(4-((1H-Indazol-5-yl)ethynyl)-[2,4′-bipyrimidin]-2′-yl)isoindolin-5-yl)oxy)-N,N-dimethylacetamide] | >273 | 0.11 | > 30
C(#Cc1ccnc(-c2ccnc(N3Cc4ccccc4C3)n2)n1)c1ccc2[nH]ncc2c1 [Ex. 12, 5-((2′-(Isoindolin-2-yl)-[2,4′-bipyrimidin]-4-yl)ethynyl)-1H-indazole] | 139 | 0.0018 | 0.25
CNC(=O)c1ccc(C#Cc2ccnc(-c3ccnc(N4Cc5ccc(OC)cc5C4)n3)n2)cc1 [Ex. 11, 4-((2′-(5-Methoxyisoindolin-2-yl)-[2,4′-bipyrimidin]-4-yl)ethynyl)-N-methylbenzamide] |  | > 30 | > 30
Cc1nnc2n1CCN(c1nccc(-c3nccc(C#Cc4ccc5[nH]ncc5c4)n3)n1)C2 [Ex. 64, 7-(4-((1H-Indazol-5-yl)ethynyl)-[2,4′-bipyrimidin]-2′-yl)-3-methyl-5,6,7,8-tetrahydro-[1,2,4]triazolo[4,3-a]pyrazine] | 10.3 | 0.33 | 3.4
